Source: patent US20130345257A1, “COMPOSITION FOR LUPUS NEPHRITIS AND METHODS OF MAKING AND USING THE SAME” (The Regents of the University of California, priority 2012, published 2013)
Entries after “also recorded” stand apart in the source; their conditions may differ.

Assays:
Format in all cases: in vivo, mouse
[1] = test system: BWF1 mice with high proteinuria (PU^hi); test: Therapeutic treatment of BWF1 mice after clinical nephritis / high proteinuria (PU^hi); settings: for Survival: treated after clinical nephritis / PU^hi, LAQ 25 mg/kg 3 times a week, MMF 100 mg/kg 5 times a week
Procedure: (§1) Therapeutic Groups: a low proteinuria group)(PU^lo) consisted of mice with IgG anti-dsDNA detectable in serum and proteinuria ≦100 mg/dL, and a high proteinuria group (PU^hi) had proteinuria ≧300 mg/dL.
(§2) Proteinuria was evaluated weekly using Albustix (Siemens), serum creatinine using a commercial kit (Arbor Assays) and anti-dsDNA IgG antibodies by ELISA as described previously (10). See, e.g., FIGS. 1 and 2.
(§3) Kidney specimens of BWF1 mice (37 weeks of age in the prevention group or 7 and 11 weeks after institution of early or late therapies) were embedded in OCT compound and snap frozen. 4-5 μm an sections were air-dried, fixed with cold acetone and incubated with blocking buffer (anti-CD16/CD32 (1/50), 2% normal goat or rat serum, 2% BSA).
(§4) Histological analysis of glomerular pathology was done by an investigator blinded to treatment group and included acute inflammatory features (endocapillary hypercellularity, mesangial hypercellularity, cellular necrosis, cellular crescents, and interstitial inflammation), and chronic features (global glomerulosclerosis (GS), focal segmental glomerulosclerosis (FSGS), and interstitial fibrosis or tubular atrophy (IF/TA)). […] The weighted total score of the clinical features was based on this formula: [endocapillary hypercellularity+mesengial hypercellularity+(cellular necrosis*2)+(cellular crescents*2)+interstitial inflammation)/5]+(GS+FSGS+IFTA)/3, with maximum score 5.2. A minimum of 25 glomeruli, of at least 10 mice per group, were scored. Scores from each individual mouse were added and averaged to yield the glomerulonephritis score.

[2] = test system: BWF1 mice with anti-dsDNA and low proteinuria (PU^lo); test: Therapeutic treatment of BWF1 mice with anti-dsDNA and low proteinuria (PU^lo); settings: LAQ 25 mg/kg, MMF 100 mg/kg
Procedure: as §1, §2, §3, §4

[3] = test system: spleen cell subsets; test: Spleen cell subsets of treated BWF1 mice by flow cytometry
Excerpt: Water-gavaged mice constituted the control untreated animals. The spleen cell subsets were identified by the expression of cell surface markers at age 32 weeks as follow: iTregs; nTregs; MΦ: CD11b^−CD103^−; MΦ^2: CD11b^+Ly6C^hiGr-1^−; MΦ^3: CD11b^+Ly6C^intGr-1^−; Gr-1: CD11b ly6C^intGr-1^+; DC: CD11c^+CD103^+; T2: CD19^+CD23^+CD21^+IgM^hi; MZ: CD19^+CD23^−CD21^+IgM^hi. Abbreviations: iTregs=induced T regulatory cells (Tregs). nTregs=natural Tregs. T2=transitional 2 B cells. MZ=marginal zone B cells. MΦ=macrophages. Gr1=granulocytes. Values are mean±SEM. The statistical significance between the groups was determined by analysis of variance (-A-NOVA). ^AP<0.05 versus untreated controls.
Single cell suspensions of splenocytes or kidney cells were prepared using cell strainers (Fisher), followed by red blood cell lysis. Kidney lymphocytes were separated from connective tissue by centrifugation (15 minutes at 400g) in 30% Percoll (GE Healthcare). CD4^+CD25^− cells from spleen and kidney were isolated using the CD4^+CD25^+ regulatory T cell isolation kit according to manufacturer's protocol (Miltenyi). CD11b+ cells were isolated using EasySep mouse CD11b positive selection kit (StemCell Technologies), surface stained for Ly6C and Ly6G prior to sorting myeloid-derived suppressor cells (MDSC) using FACSAria II. Populations were >95% pure by FACS analysis.
Single-cell suspensions from spleen or kidneys were stained for extracellular markers for 20 min at 4° C. in PBS/1% FBS. Intracellular staining for Foxp3 and cytokines was performed using the Foxp3 Fixation/Permeabilization kit according to the manufacturer's protocol (eBioscience). Cells were acquired on a FACS LSR II (BD) and data was analyzed using Flowjo (Tree Star).

[4] = test system: spleen cell subsets; test: as above; settings: for Frequency of cells ± SEM: CD4+ / Frequency of cells ± SEM: CD8+ / Frequency of cells ± SEM: CD11b^+Ly6C^+Ly6G+ / Frequency of cells ± SEM: CD11b^+Ly6C^+Ly6G− / Frequency of cells ± SEM: CD11b^+MDSC−(Mφ) / Frequency of cells ± SEM: CD11c^+CD11b+(DC) / Frequency of cells ± SEM: CD11c^+CD11b− (DC) / Frequency of cells ± SEM: CD4^+CD25^+Foxp3^+ / Frequency of cells ± SEM: CD19+: spleen, LAQ 25 mg/kg, MMF 100 mg/kg; for Frequency of cells ± SEM: CD4^+CD25^+Foxp3^+ / Frequency of cells ± SEM: CD19+: in % (unit assumed)
[5] = spleen at age 32 weeks, oral gavage from age 11 weeks, LAQ 25 mg/kg 3 days per week, MMF 100 mg/kg 5 days/week
[6] = spleen at age 32 weeks, oral gavage from age 11 weeks, LAQ 25 mg/kg 3 days per week, MMF 100 mg/kg 5 days/week, in % (unit assumed)
[7] = Preventive, 25 weeks after treatment
[8] = Therapeutic (PU^lo), 10 wks after initiation of therapy

## CCN(C(=O)c1c(O)c2c(Cl)cccc2n(C)c1=O)c1ccccc1 [LAQ, 5-chloro-N-ethyl-4-hydroxy-1-methyl-2-oxo-N-phenyl-1,2-dihydroquinoline-3-carboxamide]
[1]; PU^hi arm, LAQ 25 mg/kg, MMF 100 mg/kg
  Rise in serum creatinine: suppresses
[1]; PU^hi arm, after 8 weeks of treatment, LAQ 25 mg/kg, MMF 100 mg/kg
  Animals with proteinuria reduced to levels below 300 mg/dL: 50%
[1]; PU^hi arm, compared to controls
  FSGS and IF/TA histology scores: significantly lower
[1]; PU^hi arm, versus both control and MMF-treated mice
  Endo-capillary hypercellularity in the kidney: significantly lower
[1]; mice that already developed proteinuria, vs water
  Established proteinuria: significant reduction of proteinuria; also recorded: suppresses proteinuria
[1]; vs water
  Survival: better; also recorded: significantly increased survival; also recorded: survived
[1]; vs water, listed as laquinimod
  Survival: better
[1]; treated after clinical nephritis appeared (≧3+ proteinuria), water 100%, p<0.001
  Mice with proteinuria present after 3 wks. of treatment: 25%
[1]; treatment starting after proteinuria developed, vs water
  Histologic evidence of inflammation in the kidneys: significantly less histologic evidence of inflammation
[2]; PU^lo arm
  Anti-dsDNA: not significantly decreased
  Increase of proteinuria: prevented increased proteinuria
  Rise in serum creatinine: prevented
  Survival: significantly prolonged survival
[2]; PU^lo mice
  Reduction of endo-capillary hypercellularity, interstitial inflammation, and focal segmental glomerulosclerosis: equally effective
[3]; compared to the control mice
  Percentage of CD8^+ cells in spleen: did not; also recorded: not significantly altered
[3]; [5]
  Frequency of cells ± SEM: CD11b^+Ly6C^hiGr-1^− (MΦ^2): 12.15 ± 2.11
  Frequency of cells ± SEM: CD11b^+Ly6C^intGr-1^+ (Gr-1): 41.50 ± 3.08^A
[3]; [6]
  Frequency of cells ± SEM: CD 19^+: 68.02 ± 3.83
  Frequency of cells ± SEM: CD19^+CD23^−CD21^+IgM^hi (MZ): 11.85 ± 2.15
[3]; vs control mice
  Percentage of CD4^+ T cells in spleen: did not
[4]; FIG. 8
  Percent of CD4^+ Tregs (CD4^+CD25^+Foxp3^+) in splenocytes: increased
[4]; LAQ compared to MMF
  Numbers of two putative regulatory cells, CD4^+CD25^+Foxp3^+ Treg and CD11b^+Ly6C^intGR-1^+ myeloid MM: increased
[4]; compared to the control mice, listed as laquinimod
  Percentage of CD8^+ cells in spleen: did not
[4]; mouse, in vivo
  Numbers of MM (splenic PBMC): significantly reduced
[4]; [5]
  Frequency of cells ± SEM: CD11b^+CD103^− (MΦ^1): 2.63 ± 0.30^A
  Frequency of cells ± SEM: CD11b^+Ly6C^intGr-1^− (MΦ^3): 18.48 ± 2.31^A
  Frequency of cells ± SEM: CD19^+CD23^+CD21^+IgM^hi (T2): 51.19 ± 4.32^A
[4]; [7]
  Frequency of cells ± SEM: CD4+: 20.2 ± 0.5
  Frequency of cells ± SEM: CD8+: 12.3 ± 0.7
  Frequency of cells ± SEM: CD11b^+Ly6C^+Ly6G+: 31.7 ± 3.6
  Frequency of cells ± SEM: CD11b^+Ly6C^+Ly6G−: 37.5 ± 2.1
  Frequency of cells ± SEM: CD11b^+MDSC−(Mφ): 25.2 ± 1.7
  Frequency of cells ± SEM: CD11c^+CD11b+(DC): 0.7 ± 0.1
  Frequency of cells ± SEM: CD11c^+CD11b− (DC): 3.8 ± 0.2
  Frequency of cells ± SEM: CD4^+CD25^+Foxp3^+: 9.4 ± 0.6
  Frequency of cells ± SEM: CD19+: 68.0 ± 3.8
[4]; [8]
  Frequency of cells ± SEM: CD4+: 21.3 ± 1.3
  Frequency of cells ± SEM: CD8+: 24.9 ± 2.9
  Frequency of cells ± SEM: CD11b^+Ly6C^+Ly6G+: 33.2 ± 5.6
  Frequency of cells ± SEM: CD11b^+Ly6C^+Ly6G−: 38.7 ± 1.9
  Frequency of cells ± SEM: CD11b^+MDSC−(Mφ): 25.6 ± 3.3
  Frequency of cells ± SEM: CD11c^+CD11b+(DC): 1.0 ± 0.2
  Frequency of cells ± SEM: CD11c^+CD11b− (DC): 4.5 ± 0.4
  Frequency of cells ± SEM: CD4^+CD25^+Foxp3^+: 2.2 ± 0.1
  Frequency of cells ± SEM: CD19+: 51.1 ± 3.3
[4]; vs control mice, listed as laquinimod
  Percentage of CD4^+ T cells in spleen: did not
